# Results: patent publication US20130252331A1, “COMPOSITIONS AND METHODS FOR MODULATING METABOLISM” (priority 2010, published 2013)
# Tests used:
# [1] = Unspecified biological assay; settings: assay not specified
# 3T3L1 cells = test: Adipogenesis of 3T3L1 cells, Oil Red O staining for lipid accumulation; format: cell-based; settings: 3T3L1 cells differentiated for eight days in increasing concentrations
# From the text: FIG. 1 includes eight micrographs showing that the inhibition of BET protein family members blocks adipogenesis in a dose dependent manner in 3T3L1 cells, which is a cell line that is widely used as a model for adipogenesis. […] Following drug treatment cells were stained with Oil Red O as a measure of lipid accumulation that indicates the degree of adipocyte differentiation.
# 3T3L1 cells are a well characterized cell type that can be differentiated into fat cells that contain large lipid droplets. […] The cells were differentiated for eight days. On the final day, the cells were stained with Oil Red O, which stains for lipid accumulation in the cells.
# [2] = system: genes that control fat accumulation in liver; test: Liver RNA expression of genes that control fat accumulation in ob/ob mice; format: in vivo, mouse; settings: two weeks of treatment
# Experimental: Following treatment, the organs were harvested and liver RNA was isolated to measure gene expression profiles. The expression levels of a panel of genes that function in the control of fat accumulation in liver were measured.
# C57B/6 male mice = test: Insulin tolerance test in C57B/6 mice on high fat diet; format: in vivo, mouse
# Experimental: FIG. 9B is a graph of the area under the curve (AUC) of the data in FIG. 9A.
# 8 week old C57B/6 male mice were started on a high fat diet containing 60% kcal fat. […] Body weight was measured every week. The mice were then examined for the degree of insulin resistance by insulin tolerance testing. […] Following insulin injection blood glucose was measured at the indicated time points.
# ob/ob mice [3] = test: Liver and subcutaneous fat weight and liver H&E histology in ob/ob mice
# Experimental: The sections were stained with hematoxylin and eosin.
# Five week old Ob/ob mice were treated with either vehicle (control) or a chemical inhibitor of the BET protein family (JQ) for approximately two weeks. Following treatment the mice were euthanized and organs were harvested and weighed. The weight of the livers and subcutaneous fat were determined.
# C/EBPα = C/EBPα gene expression in 3T3L1 cells during adipocyte differentiation (RT-PCR); format: cell-based; settings: 500 nM, first four days of differentiation
# Experimental: (§1) C/EBPα and PPARγ are essential, positive regulators of adipogenesis. […] Results were obtained using RT-PCR.
# (§2) Gene expression levels of two key proteins that function in fat cell differentiation, C/EBPα and PPARγ, were measured over the first four days of differentiation.
# ob/ob mice [4] = test: Weight gain, food intake and feed efficiency in ob/ob mouse obesity model; format: in vivo; settings: 50 mg/kg, 14 days
# From the text: FIGS. 3A-3E are graphs showing that inhibition of BET family members blocks weight gain in ob/ob mice, a murine obesity model that lacks leptin.
# Ob/ob mice are a well established mouse obesity model that gains weight rapidly on a normal mouse chow diet. […] Without wishing to be bound by theory, it is likely that the disparity is due to differences in the way that ob/ob mice treated with JQ are metabolizing food relative to untreated ob/ob mice.
# PPARγ = PPARγ gene expression in 3T3L1 cells during adipocyte differentiation (RT-PCR); format: cell-based; settings: 500 nM, first four days of differentiation
# Experimental: as §1, §2
# [5] = approximately two weeks of treatment
smiles,measurement,setting,value
Cc1sc2c(c1C)C(c1ccc(Cl)cc1)=N[C@@H](CC(=O)NN)c1nnc(C)n1-2 [Compound 3],activity in at least one biological assay,[1],showed activity
Cc1sc2c(c1C)C(c1ccc(Cl)cc1)=N[C@@H](CC(=O)N/N=C/c1ccc(O)cc1)c1nnc(C)n1-2 [Compound 4],activity in at least one biological assay,[1],showed activity
"Cc1sc2c(c1C)C(c1ccc(Cl)cc1)=N[C@@H](CC(=O)OC(C)(C)C)c1nnc(C)n1-2 [JQ1 (S) enantiomer, (S)-tert-Butyl 2-(4-(4-chlorophenyl)-2,3,9-trimethyl-6H-thieno[3,2-f][1,2,4]triazolo[4,3-a][1,4]diazepin-6-yl)acetate]",adipogenesis / lipid accumulation (Oil Red O staining),3T3L1 cells,inhibited lipid accumulation
same,adipogenesis / lipid accumulation (Oil Red O staining),3T3L1 cells; listed as JQ (S) enantiomer,inhibited adipogenesis in a dose dependent manner
Cc1sc2c(c1C)C(c1ccc(Cl)cc1)=N[C@@H](CC(=O)OC(C)(C)C)c1nnc(C(F)(F)F)n1-2 [JQ11],liver expression of ACC beta,[2],reduced the expression
same,liver expression of DGAT,[2],reduced the expression
same,liver expression of FAS,[2],not statistically significant
same,liver expression of PPARγ2,[2],reduced the expression
same,liver expression of SCD1,[2],reduced the expression
same,liver expression of SREBP,[2],reduced the expression
Cc1sc2c(c1C)C(c1ccc(Cl)cc1)=N[C@H](CC(=O)OC(C)(C)C)c1nnc(C)n1-2 [JQ (R) enantiomer],adipogenesis / lipid accumulation (Oil Red O staining),3T3L1 cells,no effect on the generation of lipid
Cc1sc2c(c1C)C(c1ccc(Cl)cc1)=N[C@@H](CC(=O)OC(C)(C)C)c1nnc(C)n1-2 [JQ],blood glucose after insulin injection,"C57B/6 male mice; 7 weeks high fat diet and 50 mg/kg daily, 4 h fast, insulin 0.5 U/kg intraperitoneal",sustained decrease in blood glucose up to 2 hours
same,area under the curve for change in blood glucose,"C57B/6 male mice; 2 hour time course after insulin, p<0.05",statistically significant decrease
same,liver weight,ob/ob mice [3]; [5],statistically significant reductions
same,subcutaneous fat weight,ob/ob mice [3]; [5],statistically significant reductions
same,hepatic steatosis / liver histology (H&E),ob/ob mice [3]; two week treatment,complete block in hepatic steatosis
same,induction of C/EBPα expression,C/EBPα,significantly blocked the induction
same,food intake,ob/ob mice [4],mildly inhibited
same,weight gain,ob/ob mice [4],blocked weight gain
same,induction of PPARγ expression,PPARγ,significantly blocked the induction
